Measured values from ChEMBL document CHEMBL1125105, “Synthesis of 1-methyl-5-(3-azido-2,3-dideoxy-beta-D-erythro-pentofuranosyl)uracil and 1-methyl-5-(3-azido-2,3-dideoxy-2-fluoro-beta-D-arabinofuranosyl)uracil. The C-nucleoside isostere of 3'-azido-3'-deoxythymidine and its 2'-"up"-fluoro analogue” (J Med Chem, 1990).

Tested on: H9
Test: Compound was found to have no significant inhibitory activity against HIV in H9 cells
Format: functional, cell-based
Settings: Homo sapiens

Row | Compound | Activity
1 | Cn1cc([C@H]2C[C@H](N=[N+]=[N-])[C@@H](CO)O2)c(=O)[nH]c1=O | No significant inhibitory activity against HIV in H9 cells
2 | Cc1cn(C2CC(CO)C(O)C2F)c(=O)[nH]c1=O (configuration not stated) | No significant inhibitory activity against HIV in H9 cells
